Key:
[1] = test system: GLUT; assay: glycolysis assay (oligomycin + Cell Titer-Glo ATP readout) in HT1080 cells; type: cell-based; conditions: 10 μM oligomycin, one hour, glycolytically-derived ATP
How it was run: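 HT1080 cells exposed for one hour to compound plus 10 μM oligomycin to block mitochondrial ATP, so remaining ATP reflects glycolysis. Glycolytic ATP read by CellTiter-Glo luminescence; IC50 derived from dose-response curves.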

[2] = biological target: T1, GLUT3 (Homo sapiens, UniProt P11169); assay: glycolysis assay in DLD1 GLUT1−/− cells (rely on GLUT3); type: cell-based; conditions: DLD1-KO (GLUT1−/−) cells; 10 μM oligomycin, one hour
T1 construct: endogenous in cells; host or cells: DLD1 GLUT1−/− (knock-out) cancer cells
T1 sequence (P11169 1-496): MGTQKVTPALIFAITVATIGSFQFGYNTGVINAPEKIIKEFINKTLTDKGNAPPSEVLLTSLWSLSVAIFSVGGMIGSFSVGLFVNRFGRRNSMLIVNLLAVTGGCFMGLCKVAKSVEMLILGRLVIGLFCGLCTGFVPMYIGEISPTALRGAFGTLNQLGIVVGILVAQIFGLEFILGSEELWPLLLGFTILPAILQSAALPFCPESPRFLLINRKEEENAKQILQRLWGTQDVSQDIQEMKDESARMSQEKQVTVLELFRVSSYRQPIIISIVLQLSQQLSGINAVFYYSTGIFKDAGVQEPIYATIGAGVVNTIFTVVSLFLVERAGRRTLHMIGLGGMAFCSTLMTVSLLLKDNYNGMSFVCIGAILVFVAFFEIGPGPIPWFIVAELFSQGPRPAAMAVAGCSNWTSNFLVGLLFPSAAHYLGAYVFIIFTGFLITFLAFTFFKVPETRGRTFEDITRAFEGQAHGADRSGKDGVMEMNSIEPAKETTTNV
How it was run: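 Cells […] exposed for 1 h to inhibitor plus 10 μM oligomycin to block mitochondrial ATP; remaining glycolytic ATP read by CellTiter-Glo luminescence. IC50 derived from dose-response curves.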

[3] = test system: THP1 monocytes; assay: glycolysis assay in LPS-activated THP1 monocytes; type: cell-based; conditions: 1 μg/ml LPS 16 hrs, then one-hour glycolysis assay with oligomycin
Procedure: (§1) In FIG. 5A, THP1 cells were activated with 1 μg/ml LPS for 16 hrs prior to a one-hour glycolysis assay (Example 2+Oligomycin). In FIG. 5B, THP1 cells were treated with Example 2 one hour prior to a 16 hour treatment with 1 μg/ml LPS, after which MCP-1 secretion into the media was measured by ELISA (R&D systems) and cell number measured by Cell Titer Glo (Promega).
(§2) THP1 Monocyte assay: THP1 monocytic cancer cells were activated with 1 ug/ml LPS (Sigma-Aldrich). The previously described glycolysis assay was performed 16 hrs post-activation. For cytokine secretion, cells were pre-treated for one hour with GLUT inhibitors prior to 16 hours of 1 μg/ml LPS treatment.

[4] = test system: MCP-1 secretion; assay: MCP-1 secretion of LPS-treated THP1 monocytes (ELISA); type: cell-based; conditions: THP1 cells, compound one hour prior to 16 hour 1 μg/ml LPS
Procedure: as §1, §2

[5] = test system: phosphorylation of STAT1 and STAT3; assay: Western blot of STAT1/STAT3 phosphorylation in activated CD4 T cells; type: cell-based, human; conditions: 1 μM; CD4 T cells activated 48 hrs with IL-1β, TGF-β
Procedure: FIG. 8. […] FIG. 8A. CD4 T cells were activated for 48 hrs in the presence of IL-1β, TGF-β and 1 μM of the Example 2 compound. Western blotting analysis was used to determine the activation status of Stat3, Stat1 and pS6K (as a marker of mTORC1 activity) and the expression of GLUT1 protein. FIG. 8B. CD4 T cells were activated for 48 hrs and treated with the indicated compounds for 1.5 or 4 hrs. Western blotting analysis was used to determine the activation status of Stat3, Stat1 and pS6K (as a marker of mTORC1 activity). GLUT1/3 inhibitors downregulate phosphorylation of STAT1 and STAT3, key signaling molecules in activated T cells. In FIG. 8A. CD4 T cells were activated for 48 hrs in the presence of IL-1β, TGF-β and 1 μM of the Example 2 compound. Western blotting analysis was used to determine the activation status of Stat3, Stat1 and pS6K (as a marker of mTORC1 activity) and the expression of GLUT1 protein. CD4 T cells were activated for 48 hrs and treated with the indicated compounds in FIG. 8B for 1.5 or 4 hrs. […] IL-17 levels were measured by ELISA (R&D systems, Human IL-17 Quantikine ELISA kit). Proliferation was measured by Cell Titer Glo (Promega). Intracellular staining was performed and analyzed using the Guava EasyCyte flow cytometer. […] Protein levels and phosphorylation status were assessed by western blot analysis using antibodies purchased from Cell Signaling.

IC50 [1]: 149 nM
IC50 [2]: 60.9 nM
Structure (SMILES): CCOc1ccc2nc(-c3cccc(OCC(=O)NC(C)C)c3)nc(Nc3ccc(-c4cn[nH]c4)cc3)c2c1 [Ex. 2, 2-(3-(4-((4-(1H-pyrazol-4-yl)phenyl)amino)-6-ethoxyquinazolin-2-yl)phenoxy)-N-isopropylacetamide]
glycolysis in LPS stimulated THP1 monocytes [3]: inhibit glycolysis
MCP-1 secretion [4]: inhibits cytokine/chemokine secretion
phosphorylation of STAT1 and STAT3 [5]: downregulate the phosphorylation of STAT1 and STAT3

Reference: patent publication US11071735B2, “Treatment of inflammatory conditions and autoimmune diseases with glucose uptake inhibitors” (Kadmon Corporation, LLC, priority 2017, dated 2021)
